# Target: T1, IL-17A/A (Homo sapiens, UniProt Q16552)
# T1 construct: purchased Genscript Z03228
# T1 sequence (Q16552 24-155): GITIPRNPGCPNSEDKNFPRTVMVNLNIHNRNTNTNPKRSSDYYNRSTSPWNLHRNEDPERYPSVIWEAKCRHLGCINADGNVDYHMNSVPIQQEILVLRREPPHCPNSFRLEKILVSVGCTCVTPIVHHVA
# Assay: IL-17A/A HEK-Blue Cell Assay
# Format: cell-based
# Details: HEK-Blue IL-17A reporter cell line, SEAP readout at A630, 20 hours incubation with IL-17A/A, top concentration 10 uM, 1 uM or 0.3 uM; for IC50: read-out: IL-17A/A inhibition (pIC50) (converted)
# Experimental: The HEK-Blue IL-17A reporter cell line (Fisher #NC1408637) was used for cell-based IL-17A/A inhibition assays. Cells were grown and prepared for assays according to the manufacturer's instructions. This cell line consists of HEK 293 cells that were designed to expressed IL-17RA, IL-17RC, and the ActI adapter molecule, the combination of which, when stimulated by IL-17A/A activates a NFκB promoter and drives expression of a recombinant Secreted Alkaline Phosphatase (SEAP) geneprotein. Media from the cells is then added to a development reagent (Quanti-Blue Substrate, Fisher #NC9711613), and read at A630.
# Compounds were titrated in DMSO, with a top final compound concentration of 10 uM, 1 uM, or 0.3 uM, and added to the cells immediately before adding IL-17A/A (Genscript #Z03228). The cells, compound, and IL-17A/A were then incubated for 20 hours before media was removed for SEAP analysis. The resulting inhibition curve was then analyzed using Graphpad Prism 7.0, and IC50 values were determined using a 4-parameter nonlinear fit. DMSO was added to a universal final concentration of 0.1% to optimize background.
Compound,IC50 [nM],IL-17A/A inhibition (pIC50)
"CCC(=O)N[C@@H](C(=O)N1CCN(C)CC1)[C@@H](C)c1ccc(NC(=O)C(NC(=O)c2ccnn2CC)C(C)C2CCC(F)(F)CC2)c(F)c1 (single isomer, unassigned) [Compound 606]",10 to 100,
"CCC(=O)N[C@@H](C(=O)N1CCN(C)CC1)[C@@H](C)c1ccc(NC(=O)C(NC(=O)c2ccnn2CC)C(OC)c2ccc(F)cc2)c(F)c1 (single isomer, unassigned) [Compound 608]",,X3b (compounds were evaluated up to 0.3 uM and inhibited activity at 0.3 uM by less than 20%)
"CCC(=O)N[C@@H](C(=O)N1CCN(C)CC1)[C@@H](C)c1ccc(NC(=O)C(NC(=O)c2nonc2CC)C(OC)c2ccc(F)cc2)c(F)c1 (single isomer, unassigned) [Compound 609]",,X2b (compounds were evaluated up to 1 uM and inhibited activity at 1 uM by less than 20%)
"CCC(=O)N[C@@H](C(=O)N1CCN(C)CC1)[C@@H](C)c1ccc(NC(=O)C(NC(=O)c2nonc2CC)C(C)C2CCC(C)CC2)c(F)c1 (single isomer, unassigned) [Compound 613]",,X2b (compounds were evaluated up to 1 uM and inhibited activity at 1 uM by less than 20%)
"CCC(=O)N[C@@H](C(=O)N1CCN(C)CC1)C(OC)c1ccc(NC(=O)[C@@H](NC(=O)c2ccnn2CC)[C@H]2CC[C@H](C)CC2)c(F)c1 (single isomer, unassigned) [Compound 614]",100 to 10000,
"[2H]C([2H])([2H])C1CCC(C(NC(=O)c2nonc2CC)C(=O)Nc2ccc([C@H](C)[C@@H](NC(=O)N(C)C3CC3)C(=O)N3CCN(C)[C@H](C)C3)cc2F)CC1 (single isomer, unassigned) [Compound 615]",< 10,
"CCC(=O)NC(C(=O)NCC1CCC1)C(C)c1ccc(NC(=O)[C@@H](NC(=O)c2ccnn2CC)[C@H]2CC[C@H](C)CC2)c(F)c1 (single isomer, unassigned) [Compound 662]",,"X3a (compounds were evaluated up to 0.3 uM and did not inhibit activity by >80%, however they showed some activity at 0.3 uM (less than 80% and more than 20%))"
"CCC(=O)NC(C(=O)N1CCN(Cc2ccccc2)CC1)C(C)c1ccc(NC(=O)[C@@H](NC(=O)c2ccnn2CC)[C@H]2CC[C@H](C)CC2)c(F)c1 (single isomer, unassigned) [Compound 663]",,X3b (compounds were evaluated up to 0.3 uM and inhibited activity at 0.3 uM by less than 20%)
"CCC(=O)N[C@@H](C(=O)N1CCN(C)CC1)[C@@H](C)c1ccc(NC(=O)C(NC(=O)c2ccnn2CC)C2CCc3ccccc32)c(F)c1 (single isomer, unassigned) [Compound 753]",,X2b (compounds were evaluated up to 1 uM and inhibited activity at 1 uM by less than 20%)
"CCC(=O)N[C@@H](C(=O)N1CCN(C)CC1)[C@@H](C)c1ccc(NC(=O)C(NC(=O)c2ccnn2CC)C2CCc3cc(F)cc(F)c32)c(F)c1 (single isomer, unassigned) [Compound 809]",< 10,
CCC(=O)N[C@H](Cc1ccc(NC(=O)[C@@H](NC(=O)C(F)(F)c2ccc(OC)nc2)C2CCCCC2)c(F)c1)C(=O)N1CCN(C)CC1 [Compound 203],100 to 10000,
CCC(=O)N[C@H](Cc1ccc(NC(=O)[C@@H](NC(=O)C(F)(F)c2ccccc2)C2CCCCC2)c(F)c1)C(=O)N1CCN(C)CC1 [Compound 204],100 to 10000,
CCC(=O)N[C@H](Cc1ccc(NC(=O)[C@@H](NC(=O)C(F)(F)c2cccnc2)C2CCCCC2)c(F)c1)C(=O)N1CCN(C)CC1 [Compound 205],100 to 10000,
CCC(=O)N[C@H](Cc1ccc(NC(=O)[C@@H](NC(=O)C(F)(F)c2ccc(OC)cc2)C2CCCCC2)c(F)c1)C(=O)N1CCN(C)CC1 [Compound 206],100 to 10000,
CCC(=O)N[C@H](Cc1ccc(NC(=O)[C@@H](NC(=O)C(F)(F)c2cccc(OC)c2)C2CCCCC2)c(F)c1)C(=O)N1CCN(C)CC1 [Compound 207],100 to 10000,
CCC(=O)N[C@H](Cc1ccc(NC(=O)[C@@H](NC(=O)C(F)(F)c2ccc(C)nc2)C2CCCCC2)c(F)c1)C(=O)N1CCN(C)CC1 [Compound 208],100 to 10000,
CCC(=O)N[C@H](Cc1ccc(NC(=O)[C@@H](NC(=O)C(F)(F)c2ccc(C)cc2)C2CCCCC2)c(F)c1)C(=O)N1CCN(C)CC1 [Compound 210],100 to 10000,
CCC(=O)N[C@H](Cc1ccc(NC(=O)[C@@H](NC(=O)C(F)(F)c2ccc(Cl)cc2)C2CCCCC2)c(F)c1)C(=O)N1CCN(C)CC1 [Compound 211],100 to 10000,
CCC(=O)N[C@H](Cc1ccc(NC(=O)[C@@H](NC(=O)C(F)(F)c2cncs2)C2CCCCC2)c(F)c1)C(=O)N1CCN(C)CC1 [Compound 213],100 to 10000,
CCC(=O)N[C@H](Cc1ccc(NC(=O)[C@@H](NC(=O)C(F)(F)c2ccc(OC)nc2)C2CCCCCC2)c(F)c1)C(=O)N1CCN(C)CC1 [Compound 214],10 to 100,
CCC(=O)N[C@H](Cc1ccc(NC(=O)[C@@H](NC(=O)C(F)(F)c2ccc(OC)nc2)C2CCC(F)(F)CC2)c(F)c1)C(=O)N1CCN(C)CC1 [Compound 215],100 to 10000,

Compound,IC50 [nM],IL-17A/A inhibition (pIC50)
CCC(=O)N[C@H](Cc1ccc(NC(=O)[C@@H](NC(=O)C(F)(F)c2ccc(OC)nc2)[C@H]2CC[C@H](C)CC2)c(F)c1)C(=O)N1CCN(C)CC1 [Compound 216],100 to 10000,
CCC(=O)N[C@H](Cc1ccc(NC(=O)[C@@H](NC(=O)C(F)(F)c2ccc(=O)[nH]c2)C2CCCCC2)c(F)c1)C(=O)N1CCN(C)CC1 [Compound 217],100 to 10000,
CCC(=O)N[C@@H](C(=O)N1CCN(C)CC1)[C@@H](C)c1ccc(NC(=O)[C@@H](NC(=O)C(F)(F)c2ccc(OC)nc2)C2CCCCC2)c(F)c1 [Compound 218],10 to 100,
CCC(=O)N[C@@H](C(=O)N1CCN(C)CC1)[C@@H](C)c1ccc(NC(=O)[C@@H](NC(=O)C(F)(F)c2ccc(OC)nc2)C2CCCCCC2)c(F)c1 [Compound 219],10 to 100,
CCC(=O)N[C@@H](C(=O)N1CCN(C)CC1)[C@@H](C)c1ccc(NC(=O)[C@@H](NC(=O)C(F)(F)c2ccc(OC)nc2)C2CCC(F)(F)CC2)c(F)c1 [Compound 220],10 to 100,
CCC(=O)N[C@@H](C(=O)N1CCN(C)CC1)[C@@H](C)c1ccc(NC(=O)[C@@H](NC(=O)C(F)(F)c2ccc(OC)nc2)C2CCCCC2)cc1 [Compound 221],10 to 100,
CCC(=O)N[C@@H](C(=O)N1CCN(C)CC1)[C@@H](C)c1ccc(NC(=O)[C@@H](NC(=O)C(F)(F)c2ccc(OC)nc2)C2CCCCCC2)cc1 [Compound 222],10 to 100,
COc1ccc(C(F)(F)C(=O)N[C@H](C(=O)Nc2ccc([C@H](C)[C@@H](NC(=O)c3cnns3)C(=O)N3CCN(C)CC3)cc2F)C2CCCCC2)cn1 [Compound 224],< 10,
CCC(=O)N[C@@H](C(=O)N1CCN(C)CC1)[C@@H](CC)c1ccc(NC(=O)[C@@H](NC(=O)C(F)(F)c2ccc(OC)nc2)C2CCCCCC2)cc1 [Compound 227],10 to 100,
CCC(=O)N[C@@H](C(=O)N1CCN(C)CC1)[C@@H](C)c1ccc(NC(=O)[C@@H](NC(=O)c2ccnn2CC)C2CCCCCC2)c(F)c1 [Compound 228],< 10,
CCC(=O)N[C@@H](C(=O)N1CCN(C)CC1)[C@@H](C)c1ccc(NC(=O)[C@@H](NC(=O)c2ccnn2CC)C2CCCCC2)c(F)c1 [Compound 229],10 to 100,
CCC(=O)N[C@@H](C(=O)N1CCN(C)CC1)[C@@H](C)c1ccc(NC(=O)[C@@H](NC(=O)C(F)(F)c2cccc(C#N)c2)C2CCCCC2)c(F)c1 [Compound 230],< 10,
CCC(=O)N[C@@H](C(=O)N1CCN(C)CC1)[C@@H](C)c1ccc(NC(=O)[C@@H](NC(=O)c2ccnn2C(C)C)C2CCCCCC2)cc1 [Compound 232],10 to 100,
CCC(=O)N[C@@H](C(=O)N1CCN(C)CC1)[C@@H](C)c1ccc(NC(=O)[C@@H](NC(=O)c2ccnn2CC)[C@H]2CC[C@H](C)CC2)c(F)c1 [Compound 234],10 to 100,
CCC(=O)N[C@H](Cc1ccc(NC(=O)[C@@H](NC(=O)c2ccnn2CC)C2CCCCCC2)c(F)c1)C(=O)N1CCN(C)CC1 [Compound 235],10 to 100,
CCC(=O)N[C@H](Cc1ccc(NC(=O)[C@@H](NC(=O)c2conc2CC)C2CCCCCC2)c(F)c1)C(=O)N1CCN(C)CC1 [Compound 236],10 to 100,
CCCn1nccc1C(=O)N[C@H](C(=O)Nc1ccc(C[C@@H](NC(=O)CC)C(=O)N2CCN(C)CC2)cc1F)C1CCCCC1 [Compound 237],10 to 100,
CCC(=O)N[C@H](Cc1ccc(NC(=O)[C@@H](NC(=O)c2ccnn2C(C)C)C2CCCCCC2)c(F)c1)C(=O)N1CCN(C)CC1 [Compound 238],10 to 100,
CCC(=O)N[C@H](Cc1ccc(NC(=O)[C@@H](NC(=O)c2coc3cc(OC)ccc23)C2CCCCC2)c(F)c1)C(=O)N1CCN(C)CC1 [Compound 239],10 to 100,
CCC(=O)N[C@@H](C(=O)N1CCN(C)CC1)[C@@H](C)c1ccc(NC(=O)[C@@H](NC(=O)c2ccnn2CC)C2CCC(F)(F)CC2)c(F)c1 [Compound 240],10 to 100,
CCC(=O)N[C@@H](C(=O)N1CCN(C)CC1)[C@@H](C)c1ccc(NC(=O)[C@@H](NC(=O)c2ccnn2C(C)C)C2CCCCCC2)c(F)c1 [Compound 241],< 10,

# — patent US12421212B2, “Substituted benzenecarboxamides as IL-17A modulators” (DiCE Alpha, Inc., priority 2019, dated 2025)
